We go through two compounds from PMC10433847, “The Plasmodium Lactate/H^+ Transporter PfFNT Is Essential and Druggable In Vivo” (Antimicrobial Agents and Chemotherapy, 2023).

The experiment concerns the target T1, PfFNT V196L (Plasmodium falciparum, UniProt O77389, V196L).
T1 sequence (O77389 1-309 V196L): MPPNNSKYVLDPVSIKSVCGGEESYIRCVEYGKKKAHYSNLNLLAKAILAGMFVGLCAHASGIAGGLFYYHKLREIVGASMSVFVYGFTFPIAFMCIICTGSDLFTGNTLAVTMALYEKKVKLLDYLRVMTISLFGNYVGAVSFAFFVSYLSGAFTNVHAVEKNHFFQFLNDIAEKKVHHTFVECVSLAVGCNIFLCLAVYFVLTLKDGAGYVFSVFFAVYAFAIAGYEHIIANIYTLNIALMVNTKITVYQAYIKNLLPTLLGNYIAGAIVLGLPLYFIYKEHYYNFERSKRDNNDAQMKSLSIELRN
The class given is cell-based. As to conditions: pH 6.8; read-out: IC50, inhibition of 14C-lactate transport.

In general, IC50 refers to the concentration that inhibits the measured activity by half. For the compound `O=C(/C=C(\O)C(F)(F)C(F)(F)F)c1cccnc1` [BH267.meta], the IC50 amounted to 850 ± 50 nM.

For `COc1ccc2c(c1)OC(O)(C(F)(F)C(F)(F)F)CC2=O` (centres unmarked) [MMV007839], the IC50 was found to be 730 ± 70 nM.
